# From US12310973B2, “Administration and dosage of diaminophenothiazines” (WisTa Laboratories Ltd., priority 2016, dated 2025)
# Tested on: mild to moderate AD patients
# Assay: Phase 3 trial in mild to moderate AD: safety outcomes (adverse events)
# Assay type: in vivo, human
# Conditions: for Maximum mean change in haemoglobin from baseline: at 6 weeks
# Protocol: Patients were monitored throughout for adverse events (AEs) and clinical laboratory testing, physical and neurological examinations and 12-lead electrocardiograms were performed at all clinic visits (screening, baseline and Weeks 2, 6, 13, 26, 39, 52, 65 and 69). Patients were also assessed at all visits for suicidal ideation and intent, and were systematically assessed for signs of serotonin toxicity.
compound,measurement,setting,value
"CN(C)c1ccc2c(c1)Sc1cc(N(C)C)ccc1N2 [LMTM, leuco-methythioninium bis(hydromethanesulfonate)]",Maximum mean change in haemoglobin from baseline,4 mg b.i.d.,-0.01 g/L
same,"AESI: ARIA, %",75 mg b.i.d. (n = 267),(1.5) %
same,"AESI: Methemoglobinemia, hemolytic anemia, and/or Heinz bodies, %",75 mg b.i.d. (n = 267),(0) %
same,"AESI: “Serotonin syndrome”, %",75 mg b.i.d. (n = 267),(0.7) %
same,"Anemia, % of patients",75 mg b.i.d. (n = 267),(8.2%)
same,"Anemia, number of patients",75 mg b.i.d. (n = 267),22
same,"At least one TEAE, % of patients",75 mg b.i.d. (n = 267),(83.9%)
same,"At least one TEAE, number of patients",75 mg b.i.d. (n = 267),224
same,"Blood and lymphatic system disorders, % of patients",75 mg b.i.d. (n = 267),(10.9%)
same,"Blood and lymphatic system disorders, number of patients",75 mg b.i.d. (n = 267),29
same,"Blood folate decreased, % of patients",75 mg b.i.d. (n = 267),(6.7%)
same,"Blood folate decreased, number of patients",75 mg b.i.d. (n = 267),18
same,"Cough, % of patients",75 mg b.i.d. (n = 267),(5.2%)
same,"Cough, number of patients",75 mg b.i.d. (n = 267),14
same,"Deaths, %",75 mg b.i.d. (n = 267),(1.1) %
same,"Diarrhea, % of patients",75 mg b.i.d. (n = 267),(23.6%)
same,"Diarrhea, number of patients",75 mg b.i.d. (n = 267),63
same,"Dysuria, % of patients",75 mg b.i.d. (n = 267),(2.6%)
same,"Dysuria, number of patients",75 mg b.i.d. (n = 267),7
same,"Gastrointestinal disorders, % of patients",75 mg b.i.d. (n = 267),(39.3%)
same,"Gastrointestinal disorders, number of patients",75 mg b.i.d. (n = 267),105
same,"Infections and infestations, % of patients",75 mg b.i.d. (n = 267),(31.1%)
same,"Infections and infestations, number of patients",75 mg b.i.d. (n = 267),83
same,"Investigations, % of patients",75 mg b.i.d. (n = 267),(32.6%)
same,"Investigations, number of patients",75 mg b.i.d. (n = 267),87
same,"Nausea, % of patients",75 mg b.i.d. (n = 267),(8.2%)
same,"Nausea, number of patients",75 mg b.i.d. (n = 267),22
same,"Other SUSARs, %",75 mg b.i.d. (n = 267),(0.7) %
same,"Pollakiuria, % of patients",75 mg b.i.d. (n = 267),(5.6%)
same,"Pollakiuria, number of patients",75 mg b.i.d. (n = 267),15
same,"Renal and urinary disorders, % of patients",75 mg b.i.d. (n = 267),(22.8%)
same,"Renal and urinary disorders, number of patients",75 mg b.i.d. (n = 267),61
same,"Respiratory, thoracic and mediastinal disorders, % of patients",75 mg b.i.d. (n = 267),(12.0%)
same,"Respiratory, thoracic and mediastinal disorders, number of patients",75 mg b.i.d. (n = 267),32
same,"Urinary incontinence, % of patients",75 mg b.i.d. (n = 267),(6.7%)
same,"Urinary incontinence, number of patients",75 mg b.i.d. (n = 267),18
same,"Urinary tract infection, % of patients",75 mg b.i.d. (n = 267),(10.9%)
same,"Urinary tract infection, number of patients",75 mg b.i.d. (n = 267),29
same,"Vomiting, % of patients",75 mg b.i.d. (n = 267),(9.4%)
same,"Vomiting, number of patients",75 mg b.i.d. (n = 267),25
same,Maximum mean change in haemoglobin from baseline,75 mg b.i.d.,-0.47 g/L
same,"AESI: ARIA, %",125 mg b.i.d. (n = 264),(0.4) %
same,"AESI: Methemoglobinemia, hemolytic anemia, and/or Heinz bodies, %",125 mg b.i.d. (n = 264),(0.4) %
same,"AESI: “Serotonin syndrome”, %",125 mg b.i.d. (n = 264),(0) %
same,"Anemia, % of patients",125 mg b.i.d. (n = 264),(5.7%)
same,"Anemia, number of patients",125 mg b.i.d. (n = 264),15
same,"At least one TEAE, % of patients",125 mg b.i.d. (n = 264),(86.7%)
same,"At least one TEAE, number of patients",125 mg b.i.d. (n = 264),229
same,"Blood and lymphatic system disorders, % of patients",125 mg b.i.d. (n = 264),(9.5%)
same,"Blood and lymphatic system disorders, number of patients",125 mg b.i.d. (n = 264),25
same,"Blood folate decreased, % of patients",125 mg b.i.d. (n = 264),(7.2%)
same,"Blood folate decreased, number of patients",125 mg b.i.d. (n = 264),19
same,"Cough, % of patients",125 mg b.i.d. (n = 264),(4.2%)
same,"Cough, number of patients",125 mg b.i.d. (n = 264),11
same,"Deaths, %",125 mg b.i.d. (n = 264),(1.1) %
same,"Diarrhea, % of patients",125 mg b.i.d. (n = 264),(25.4%)
same,"Diarrhea, number of patients",125 mg b.i.d. (n = 264),67
same,"Dysuria, % of patients",125 mg b.i.d. (n = 264),(10.2%)
same,"Dysuria, number of patients",125 mg b.i.d. (n = 264),27
same,"Gastrointestinal disorders, % of patients",125 mg b.i.d. (n = 264),(42.0%)
same,"Gastrointestinal disorders, number of patients",125 mg b.i.d. (n = 264),111
same,"Infections and infestations, % of patients",125 mg b.i.d. (n = 264),(28.8%)
same,"Infections and infestations, number of patients",125 mg b.i.d. (n = 264),76
same,"Investigations, % of patients",125 mg b.i.d. (n = 264),(30.3%)
same,"Investigations, number of patients",125 mg b.i.d. (n = 264),80
same,"Nausea, % of patients",125 mg b.i.d. (n = 264),(7.2%)
same,"Nausea, number of patients",125 mg b.i.d. (n = 264),19
